Measurements: patent US20250074888A1, “PYRIDAZINE DERIVATIVES AS MODULATORS OF NLRP3 INFLAMMASOME AND RELATED METHODS” (Neumora Therapeutics, Inc., priority 2021, published 2025)

Experiments:
IL-6 = IL-6 release from LPS-primed, nigericin-treated THP1 macrophages, Hu IL-6 AlphaLISA; format: cell-based; settings: Homo sapiens, THP-1; PMA-differentiated THP1, LPS 20 ng/ml 3 hrs, compound 1 hr, Nigericin 6.7 uM 3 hrs, supernatant
NLRP3 inflammasome = NLRP3 inflammasome (Homo sapiens, UniProt Q96P20); assay: NLRP3 inflammasome activation in THP1 macrophages (LPS priming, nigericin), IL-1β AlphaLISA; format: cell-based; settings: PMA-differentiated THP1, LPS 20 ng/ml 3 hrs, compound 1 hr, Nigericin 6.7 uM 3 hrs, supernatant
Sequence of NLRP3 inflammasome (Q96P20 whole entry): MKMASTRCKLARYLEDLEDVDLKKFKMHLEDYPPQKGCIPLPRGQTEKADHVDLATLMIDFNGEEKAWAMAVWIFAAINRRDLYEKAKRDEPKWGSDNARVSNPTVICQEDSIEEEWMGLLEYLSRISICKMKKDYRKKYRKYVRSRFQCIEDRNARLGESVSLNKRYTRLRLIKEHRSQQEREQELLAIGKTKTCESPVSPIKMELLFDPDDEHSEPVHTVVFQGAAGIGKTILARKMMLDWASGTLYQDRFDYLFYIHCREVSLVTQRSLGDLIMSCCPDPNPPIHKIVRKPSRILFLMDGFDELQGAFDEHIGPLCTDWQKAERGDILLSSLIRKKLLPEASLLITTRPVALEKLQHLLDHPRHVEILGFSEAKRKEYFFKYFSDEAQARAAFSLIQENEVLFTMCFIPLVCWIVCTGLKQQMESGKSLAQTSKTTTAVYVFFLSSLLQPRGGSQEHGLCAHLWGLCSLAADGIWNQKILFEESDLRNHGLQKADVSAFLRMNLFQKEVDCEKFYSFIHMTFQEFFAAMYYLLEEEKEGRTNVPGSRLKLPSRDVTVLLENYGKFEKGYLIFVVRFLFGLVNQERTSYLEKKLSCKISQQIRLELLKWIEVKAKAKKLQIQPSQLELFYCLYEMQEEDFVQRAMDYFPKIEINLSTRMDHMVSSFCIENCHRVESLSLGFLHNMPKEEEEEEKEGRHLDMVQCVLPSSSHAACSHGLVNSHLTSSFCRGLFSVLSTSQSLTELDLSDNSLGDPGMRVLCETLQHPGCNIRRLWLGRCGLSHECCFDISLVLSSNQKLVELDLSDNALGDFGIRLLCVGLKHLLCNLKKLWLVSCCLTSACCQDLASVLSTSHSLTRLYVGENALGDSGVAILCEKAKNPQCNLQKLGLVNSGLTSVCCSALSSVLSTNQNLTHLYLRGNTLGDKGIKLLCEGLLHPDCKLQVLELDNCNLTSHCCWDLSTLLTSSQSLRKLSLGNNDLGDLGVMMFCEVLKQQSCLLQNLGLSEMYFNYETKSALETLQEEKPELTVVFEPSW

| Compound | IC50 (IL-6) [µM] | IC50 (NLRP3 inflammasome) [µM] |
| --- | --- | --- |
| CCN1CCC[C@@H](Nc2cc(C)c(-c3ccc(Cl)cc3C)nn2)C1 [compound 201] | > 10 | ≤ 0.01 |
| Cc1cc(N(C)[C@@H]2CCCN(C)C2)nnc1-c1ccc(Cl)cc1 [compound 202] | > 10 | 0.1 to 0.5 |
| Cc1cc(Cl)ccc1-c1nnc(N(C)[C@@H]2CCCN(C)C2)cc1C [compound 204] | > 10 | 0.5 to 1 |
| Cc1cc(O[C@@H]2CCCN(C)C2)nnc1-c1ccc(Cl)cc1 [compound 210] | > 10 | 0.1 to 0.5 |

The remaining lines, values ahead:

| IC50 (IL-6) [µM] | IC50 (NLRP3 inflammasome) [µM] | Compound |
| --- | --- | --- |
| > 10 | 0.05 to 0.1 | Cc1cc(C(F)F)ccc1-c1ccc(N[C@@H]2CCCN(C)C2)nn1 [compound 199] |
| > 10 | ≤ 0.01 | Cc1cc(Cl)ccc1-c1nnc(N[C@@H]2CCCN(C(C)C)C2)cc1C [compound 200] |
| > 10 | 0.01 to 0.05 | Cc1cc(N[C@@H]2CCCN(C)C2)nnc1-c1ccc(F)cc1C(F)F [compound 203] |
